Laboratory results: the NIST ThermoML archive (doi:10.1016/j.jct.2016.07.017)
Numbers after ± are expanded uncertainties.

Experiments:
[1] = for viscosity / mass density: 101.33 kPa; for viscosity / mass density / surface tension liquid-gas: Liquid; for viscosity: Falling or rolling sphere viscometry; for mass density: Vibrating tube method; for surface tension liquid-gas: Ring tensiometer
[2] = activity coefficient (dimensionless); of the first substance listed, at infinite dilution; xn = mol fraction of the nth substance listed; conditions: 101.33 kPa, Liquid, Chromatography, x1 = 0

CC[N+](C)(CC)CCOC.O=S(=O)([N-]S(=O)(=O)C(F)(F)F)C(F)(F)F
[1]
Conditions | mass density [kg/m3] | surface tension liquid-gas [mN/m] | viscosity [mPa·s]
288.15 K | 1416.6 ± 1.1 | – | 120.6 ± 4.1
298.15 K | 1407.33 ± 1.1 | 33.6 ± 0.8 | 70.96 ± 1.7
308.15 K | 1398.12 ± 1.1 | 32.6 ± 0.8 | 45.36 ± 1
318.15 K | 1389 ± 1.1 | 32.1 ± 0.7 | 30.96 ± 0.68
328.15 K | 1379.94 ± 1.1 | 31.6 ± 0.7 | 22.23 ± 0.49
338.15 K | 1370.78 ± 1.1 | 31.3 ± 0.7 | 16.58 ± 0.36
348.15 K | 1361.55 ± 1.1 | – | 12.79 ± 0.28
358.15 K | 1352.39 ± 1.1 | – | 10.18 ± 0.22
368.15 K | 1343.38 ± 1.1 | – | 8.19 ± 0.18

Conditions | Glass transition temperature [°C]
[1], Glass, DSC | -93.7 ± 0.8

C=CCCCC [hex-1-ene] + CC[N+](C)(CC)CCOC.O=S(=O)([N-]S(=O)(=O)C(F)(F)F)C(F)(F)F
[2]
Conditions | activity coefficient
318.15 K | 9.21 ± 0.8
328.15 K | 8.78 ± 0.76
338.15 K | 8.33 ± 0.72
348.15 K | 8.07 ± 0.7
358.15 K | 7.64 ± 0.66

CCCCCC [hexane] + CC[N+](C)(CC)CCOC.O=S(=O)([N-]S(=O)(=O)C(F)(F)F)C(F)(F)F
[2]
Conditions | activity coefficient
318.15 K | 18.2 ± 1.6
328.15 K | 16.9 ± 1.5
338.15 K | 15.8 ± 1.4
348.15 K | 14.9 ± 1.3
358.15 K | 14 ± 1.2

CO [methanol] + CC[N+](C)(CC)CCOC.O=S(=O)([N-]S(=O)(=O)C(F)(F)F)C(F)(F)F
[2]
Conditions | activity coefficient
318.15 K | 1.33 ± 0.11
328.15 K | 1.26 ± 0.11
338.15 K | 1.15 ± 0.1
348.15 K | 1.09 ± 0.09
358.15 K | 1.01 ± 0.08

CC1CCCCC1 [methylcyclohexane] + CC[N+](C)(CC)CCOC.O=S(=O)([N-]S(=O)(=O)C(F)(F)F)C(F)(F)F
[2]
Conditions | activity coefficient
318.15 K | 14.9 ± 1.3
328.15 K | 13.8 ± 1.2
338.15 K | 12.9 ± 1.1
348.15 K | 12 ± 1
358.15 K | 11.2 ± 1

CCCCCCCCC [nonane] + CC[N+](C)(CC)CCOC.O=S(=O)([N-]S(=O)(=O)C(F)(F)F)C(F)(F)F
[2]
Conditions | activity coefficient
318.15 K | 55.7 ± 4.8
328.15 K | 50 ± 4.3
338.15 K | 45.3 ± 3.9
348.15 K | 41 ± 3.5
358.15 K | 37.7 ± 3.3

C=CCCCCCC [oct-1-ene] + CC[N+](C)(CC)CCOC.O=S(=O)([N-]S(=O)(=O)C(F)(F)F)C(F)(F)F
[2]
Conditions | activity coefficient
318.15 K | 19.6 ± 1.7
328.15 K | 18.3 ± 1.6
338.15 K | 17.1 ± 1.5
348.15 K | 16.2 ± 1.4
358.15 K | 15.2 ± 1.3

CCCCCCCC [octane] + CC[N+](C)(CC)CCOC.O=S(=O)([N-]S(=O)(=O)C(F)(F)F)C(F)(F)F
[2]
Conditions | activity coefficient
318.15 K | 38.3 ± 3.3
328.15 K | 34.8 ± 3
338.15 K | 31.9 ± 2.8
348.15 K | 29.5 ± 2.6
358.15 K | 27 ± 2.3

CCCC(C)=O [pentan-2-one] + CC[N+](C)(CC)CCOC.O=S(=O)([N-]S(=O)(=O)C(F)(F)F)C(F)(F)F
[2]
Conditions | activity coefficient
318.15 K | 0.853 ± 0.071
328.15 K | 0.862 ± 0.072
338.15 K | 0.87 ± 0.072
348.15 K | 0.884 ± 0.073
358.15 K | 0.896 ± 0.074

CCC(=O)CC [pentan-3-one] + CC[N+](C)(CC)CCOC.O=S(=O)([N-]S(=O)(=O)C(F)(F)F)C(F)(F)F
[2]
Conditions | activity coefficient
318.15 K | 0.852 ± 0.071
328.15 K | 0.873 ± 0.072
338.15 K | 0.889 ± 0.074
348.15 K | 0.906 ± 0.075
358.15 K | 0.916 ± 0.076

CCCO [propan-1-ol] + CC[N+](C)(CC)CCOC.O=S(=O)([N-]S(=O)(=O)C(F)(F)F)C(F)(F)F
[2]
Conditions | activity coefficient
318.15 K | 2.26 ± 0.19
328.15 K | 2.04 ± 0.18
338.15 K | 1.87 ± 0.16
348.15 K | 1.72 ± 0.15
358.15 K | 1.59 ± 0.13

CC(C)O [propan-2-ol] + CC[N+](C)(CC)CCOC.O=S(=O)([N-]S(=O)(=O)C(F)(F)F)C(F)(F)F
[2]
Conditions | activity coefficient
318.15 K | 2.04 ± 0.18
328.15 K | 1.84 ± 0.16
338.15 K | 1.7 ± 0.14
348.15 K | 1.56 ± 0.13
358.15 K | 1.44 ± 0.12

c1ccncc1 [pyridine] + CC[N+](C)(CC)CCOC.O=S(=O)([N-]S(=O)(=O)C(F)(F)F)C(F)(F)F
[2]
Conditions | activity coefficient
318.15 K | 0.6 ± 0.053
328.15 K | 0.604 ± 0.053
338.15 K | 0.607 ± 0.053
348.15 K | 0.615 ± 0.054
358.15 K | 0.619 ± 0.054

C=Cc1ccccc1 [styrene] + CC[N+](C)(CC)CCOC.O=S(=O)([N-]S(=O)(=O)C(F)(F)F)C(F)(F)F
[2]
Conditions | activity coefficient
318.15 K | 1.3 ± 0.11
328.15 K | 1.3 ± 0.11
338.15 K | 1.31 ± 0.11
348.15 K | 1.34 ± 0.11
358.15 K | 1.36 ± 0.11

C1CCOC1 [tetrahydrofuran] + CC[N+](C)(CC)CCOC.O=S(=O)([N-]S(=O)(=O)C(F)(F)F)C(F)(F)F
[2]
Conditions | activity coefficient
318.15 K | 0.817 ± 0.068
328.15 K | 0.83 ± 0.069
338.15 K | 0.845 ± 0.07
348.15 K | 0.862 ± 0.072
358.15 K | 0.867 ± 0.072

c1ccsc1 [thiophene] + CC[N+](C)(CC)CCOC.O=S(=O)([N-]S(=O)(=O)C(F)(F)F)C(F)(F)F
[2]
Conditions | activity coefficient
318.15 K | 0.906 ± 0.075
328.15 K | 0.912 ± 0.075
338.15 K | 0.925 ± 0.076
348.15 K | 0.937 ± 0.077
358.15 K | 0.94 ± 0.077

Cc1ccccc1 [toluene] + CC[N+](C)(CC)CCOC.O=S(=O)([N-]S(=O)(=O)C(F)(F)F)C(F)(F)F
[2]
Conditions | activity coefficient
318.15 K | 1.47 ± 0.12
328.15 K | 1.48 ± 0.13
338.15 K | 1.5 ± 0.13
348.15 K | 1.52 ± 0.13
358.15 K | 1.53 ± 0.13

O [water] + CC[N+](C)(CC)CCOC.O=S(=O)([N-]S(=O)(=O)C(F)(F)F)C(F)(F)F
[2]
Conditions | activity coefficient
318.15 K | 1.9 ± 0.16
328.15 K | 1.73 ± 0.15
338.15 K | 1.6 ± 0.14
348.15 K | 1.46 ± 0.12
358.15 K | 1.32 ± 0.11
